Laboratory results from BigSolDB 2.1.

## COC(=O)C1=C(C)NC(C)=C(C(=O)OCC(C)C)C1c1ccccc1[N+](=O)[O-] (stereo not given)
In acetonitrile, 278.15 K
  solubility (mole fraction): 0.00826
In acetonitrile, 283.15 K
  solubility (mole fraction): 0.00998
In acetonitrile, 288.15 K
  solubility (mole fraction): 0.0121
In acetonitrile, 293.15 K
  solubility (mole fraction): 0.0145
In acetonitrile, 298.15 K
  solubility (mole fraction): 0.0173
In acetonitrile, 303.15 K
  solubility (mole fraction): 0.0204
In acetonitrile, 308.15 K
  solubility (mole fraction): 0.0241
In acetonitrile, 313.15 K
  solubility (mole fraction): 0.0281
In acetonitrile, 318.15 K
  solubility (mole fraction): 0.0329
In ethyl acetate, 278.15 K
  solubility (mole fraction): 0.016
In ethyl acetate, 283.15 K
  solubility (mole fraction): 0.0185
In ethyl acetate, 288.15 K
  solubility (mole fraction): 0.0214
In ethyl acetate, 293.15 K
  solubility (mole fraction): 0.0248
In ethyl acetate, 298.15 K
  solubility (mole fraction): 0.0286
In ethyl acetate, 303.15 K
  solubility (mole fraction): 0.0324
In ethyl acetate, 308.15 K
  solubility (mole fraction): 0.037
In ethyl acetate, 313.15 K
  solubility (mole fraction): 0.0419
In ethyl acetate, 318.15 K
  solubility (mole fraction): 0.0477
In isopropanol, 278.15 K
  solubility (mole fraction): 0.00483
In isopropanol, 283.15 K
  solubility (mole fraction): 0.00578
In isopropanol, 288.15 K
  solubility (mole fraction): 0.00688
In isopropanol, 293.15 K
  solubility (mole fraction): 0.0081
In isopropanol, 298.15 K
  solubility (mole fraction): 0.00956
In isopropanol, 303.15 K
  solubility (mole fraction): 0.0111
In isopropanol, 308.15 K
  solubility (mole fraction): 0.0129
In isopropanol, 313.15 K
  solubility (mole fraction): 0.015
In isopropanol, 318.15 K
  solubility (mole fraction): 0.0172
In n-propanol, 278.15 K
  solubility (mole fraction): 0.00367
In n-propanol, 283.15 K
  solubility (mole fraction): 0.00448
In n-propanol, 288.15 K
  solubility (mole fraction): 0.00553
In n-propanol, 293.15 K
  solubility (mole fraction): 0.00673
In n-propanol, 298.15 K
  solubility (mole fraction): 0.00811
In n-propanol, 303.15 K
  solubility (mole fraction): 0.0097
In n-propanol, 308.15 K
  solubility (mole fraction): 0.0115
In n-propanol, 313.15 K
  solubility (mole fraction): 0.0136
In n-propanol, 318.15 K
  solubility (mole fraction): 0.0162
In water, 278.15 K
  solubility (mole fraction): 3.79e-06
In water, 283.15 K
  solubility (mole fraction): 5.04e-06
In water, 288.15 K
  solubility (mole fraction): 6.75e-06
In water, 293.15 K
  solubility (mole fraction): 8.67e-06
In water, 298.15 K
  solubility (mole fraction): 1.17e-05
In water, 303.15 K
  solubility (mole fraction): 1.51e-05
In water, 308.15 K
  solubility (mole fraction): 1.94e-05
In water, 313.15 K
  solubility (mole fraction): 2.47e-05
In water, 318.15 K
  solubility (mole fraction): 3.09e-05
